Data taken from US4450269A, “Mono-5-substituted-3-chloro-4H-1,2,6-thiadiazin-4-one antifungal agents” (FMC Corporation, priority 1980, dated 1984).
Where a name gives a salt, the structure may show the parent alone.

Test system: Rhizoctonia solani
Test: Mycelial growth test
Type: cell-based
Details: RS; for inhibition at 5 ppm / inhibition at 10 ppm / inhibition at 20 ppm / inhibition at 40 ppm: Rhizoctonia solani, 72 h, read-out: Percent Fungus Growth Inhibition; for Percent Fungus Growth Inhibition: 72 hours, hydrochloride
Source text: | RS = Rhizoctonia solani

| Structure (SMILES) | inhibition at 5 ppm | inhibition at 10 ppm (10 ppm) | inhibition at 20 ppm (20 ppm) | inhibition at 40 ppm (40 ppm) | Percent Fungus Growth Inhibition (10 ppm) | Percent Fungus Growth Inhibition (20 ppm) | Percent Fungus Growth Inhibition (40 ppm) |
| --- | --- | --- | --- | --- | --- | --- | --- |
| O=c1c(Cl)nsnc1Oc1cccc(C(F)(F)F)c1 [Compound 44, 3-chloro-5-[(3-trifluoromethyl)phenoxy]-4H--1,2,6-thiadiazin-4-one] | 82% | 80% | 96% | 100% | – | – | – |
| C[S+]([O-])c1ccc(Oc2nsnc(Cl)c2=O)cc1 (centres unmarked) [Compound 40, 3-chloro-5-[(4-methylsulfinyl)phenoxy]-4H-1,2,6,-thiadiazin-4-one] | 0% | 0% | 24% | 53% | – | – | – |
| Cc1ccc(Oc2nsnc(Cl)c2=O)c(C)c1 [Compound 23, 3-chloro-5-(2,4-dimethylphenoxy)-4H--1,2,6-thiadiazin-4-one] | 20% | 53% | 73% | 78% | – | – | – |
| CSc1ccc(Oc2nsnc(Cl)c2=O)cc1 [Compound 39, 3-chloro-5-[(4-methylthio)phenoxy]-4H-1,2,6,-thiadiazin-4-one] | 24% | 31% | 31% | 42% | – | – | – |
| CC(=O)Nc1cccc(Oc2nsnc(Cl)c2=O)c1 [Compound 42, 3-[(3-N--acetylamino)-phenoxy]-5-chloro-4H--1,2,6-thiadiazin-4-one] | 0% | 4% | 31% | 67% | – | – | – |
| COc1cc(Cl)cc(Oc2nsnc(Cl)c2=O)c1 [Compound 52, 3-chloro-5-[(3-chloro-5-methoxy)phenoxy]-4H--1,2,6-thiadiazin-4-one] | 33% | 64% | 64% | 100% | – | – | – |
| N#Cc1ccc(Oc2nsnc(Cl)c2=O)cc1 [Compound 10, 3-chloro-5-(4-cyanophenoxy)-4H--1,2,6-thiadiazin-4-one] | 9% | 13% | 100% | 100% | – | – | – |
| O=c1c(Cl)nsnc1Oc1ccccc1Br [Compound 34, 3-chloro-5-(2-bromophenoxy)-4H-1,2,6,-thiadiazin-4-one] | 24% | 64% | 76% | 100% | – | – | – |
| Cc1cc(Oc2nsnc(Cl)c2=O)cc(C)c1Cl [Compound 59, 3-chloro-5-[(4-chloro-3,5-dimethyl)phenoxy]-4H--1,2,6-thiadiazin-4-one] | 33% | 24% | 33% | 69% | – | – | – |
| Cc1cc(C)cc(Oc2nsnc(Cl)c2=O)c1 [Compound 25, 3-chloro-5-(3,5-dimethylphenoxy)-4H--1,2,6-thiadiazin-4-one] | 20% | 64% | 80% | 78% | – | – | – |
| O=c1c(Cl)nsnc1Oc1c(Cl)c(Cl)c(Cl)c(Cl)c1Cl [Compound 31, 3-chloro-5-(pentachlorophenoxy)-4H--1,2,6-thiadiazine-4-one] | 53% | 69% | 73% | 76% | – | – | – |
| Nc1ccc(Oc2nsnc(Cl)c2=O)cc1 [Compound 27, 5-(4-aminophenoxy)-3-chloro-4H--1,2,6-thiadiazine-4-one hydrochloride] | – | – | – | – | 31% | 24% | 64% |
| COc1cc(Oc2nsnc(Cl)c2=O)cc(OC)c1C(C)=O [Compound 61, 3-[(4-acetyl-3,5-dimethoxy)-phenoxy]-5-chloro-4H--1,2,6-thiadiazin-4-one] | 0% | 13% | 33% | 47% | – | – | – |
| O=c1c(Cl)nsnc1Oc1cccc2ccccc12 [Compound 32, 3-chloro-5(1-naphthoxy)-4H-1,2,6-thiadiazin-4-one] | 76% | 42% | 69% | 73% | – | – | – |
| Cc1ccc(Oc2nsnc(Cl)c2=O)cc1 [Compound 3, 3-chloro-5-(4-methylphenoxy)-4H--1,2,6-thiadiazin-4-one] | 0% | 20% | 56% | 100% | – | – | – |
| O=c1c(Cl)nsnc1Oc1c(Cl)cc(Cl)cc1Cl [Compound 30, 3-chloro-5-(2,4,6-trichlorophenoxy)-4H--1,2,6-thiadiazin-4-one] | 42% | 62% | 69% | 80% | – | – | – |
| O=c1c(Cl)nsnc1Oc1ccc(Cl)c(Cl)c1 [Compound 16, 3-chloro-5-(3,4-dichlorophenoxy)-4H--1,2,6-thiadiazin-4-one] | 29% | 31% | 31% | 69% | – | – | – |
| CC(C)(C)c1ccc(Oc2nsnc(Cl)c2=O)cc1 [Compound 4, 3-chloro-5-(4-tert-butylphnoxy)-4H--1,2,6-thiadiazin-4-one] | 0% | 0% | 0% | 0% | – | – | – |
| COc1ccc(Cl)c(Oc2nsnc(Cl)c2=O)c1 [Compound 51, 3-chloro-5-[(2-chloro-5-methoxy)phenoxy]-4H--1,2,6-thiadiazin-4-one] | 20% | 56% | 82% | 100% | – | – | – |
| COc1ccc(Oc2nsnc(Cl)c2=O)cc1 [Compound 5, 3-chloro-5-(4-methoxyphenoxy)4H--1,2,6-thiadiazin-4-one] | 0% | 0% | 38% | 64% | – | – | – |

| Structure (SMILES) | inhibition at 5 ppm | inhibition at 10 ppm (10 ppm) | inhibition at 20 ppm (20 ppm) | inhibition at 40 ppm (40 ppm) | Percent Fungus Growth Inhibition (10 ppm) | Percent Fungus Growth Inhibition (20 ppm) | Percent Fungus Growth Inhibition (40 ppm) |
| --- | --- | --- | --- | --- | --- | --- | --- |
| O=c1c(Cl)nsnc1Oc1ccccc1Cl [Compound 14, 3-chloro-5-(2-chlorophenoxy)-4H--1,2,6-thiadiazin-4-one] | 53% | 56% | 76% | 91% | – | – | – |
| CC(=O)Nc1ccccc1Oc1nsnc(Cl)c1=O [Compound 43, 3-[(2-acetylamino)-phenoxy]-5-chloro-4H--1,2,6-thiadiazin-4-one] | 0% | 0% | 11% | 24% | – | – | – |
| O=c1c(Cl)nsnc1Oc1c(Cl)cccc1Cl [Compound 18, 3-chloro-5-(2,6-dichlorophenoxy)-4H--1,2,6-thiadiazin-4-one] | 42% | 56% | 76% | 87% | – | – | – |
| O=C(O)Cc1ccccc1Oc1nsnc(Cl)c1=O [Compound 45, 3-(2-carboxymethylphenoxy)-5-chloro-4H--1,2,6-thiadiazin-4-one] | 0% | 0% | 13% | 42% | – | – | – |
| O=c1c(Cl)nsnc1Oc1cccc(Cl)c1 [Compound 13, 3-chloro-5-(3-chlorophenoxy)-4H--1,2,6-thiadiazin-4-one] | 24% | 53% | 69% | 76% | – | – | – |
| O=C(O)c1ccc(Oc2nsnc(Cl)c2=O)cc1 [Compound 50, 3-(4-carboxyphenoxy)-5-chloro-4H--1,2,6-thiadiazin-4-one] | 42% | 0% | 13% | 47% | – | – | – |
| CC(=O)Nc1ccc(Oc2nsnc(Cl)c2=O)cc1 [Compound 8, 5-(4-acetylaminophenoxy)-3-chloro-4H--1,2,6-thiadiazin-4-one] | 0% | 0% | 7% | 42% | – | – | – |
| Cc1cc(Cl)c(Oc2nsnc(Cl)c2=O)cc1C [Compound 58, 3-chloro-5-[(2-chloro-4,5-dimethyl)phenoxy]-4H--1,2,6-thiadiazin-4-one] | 56% | 58% | 53% | 64% | – | – | – |
| N#CCc1ccc(Oc2nsnc(Cl)c2=O)cc1 [Compound 46, 3-chloro-5-[(4-cyanomethyl)-phenoxy]4H--1,2,6-thiadiazin-4-one] | 27% | 56% | 64% | 100% | – | – | – |
| O=c1c(Cl)nsnc1Oc1ccc(Cl)cc1 [Compound 12, 3-chloro-5-(4-chlorophenoxy)-4H--1,2,6-thiadiazin-4-one] | 20% | 58% | 64% | 100% | – | – | – |
| CNC(=O)Nc1ccc(Oc2nsnc(Cl)c2=O)cc1 [Compound 28, 3-chloro-5-[4-(3-methylureido)-phenoxy]-4H--1,2,6-thiadiazin-4-one] | 20% | 47% | 24% | 47% | – | – | – |
| CC(=O)c1cccc(Oc2nsnc(Cl)c2=O)c1 [Compound 48, 3-(3-acetylphenoxy)-5-chloro-4H--1,2,6-thiadiazin-4-one] | 64% | 24% | 64% | 76% | – | – | – |
| O=c1c(Cl)nsnc1Oc1ccccc1 [Compound 2, 3-chloro-5-phenoxy-4H--1,2,6-thiadiazin-4-one] | 0% | 42% | 100% | 78% | – | – | – |
| Cc1ccccc1Oc1nsnc(Cl)c1=O [Compound 22, 3-chloro-5-(2-methylphenoxy)-4H--1,2,6-thiadiazin-4-one] | 42% | 62% | 91% | 100% | – | – | – |
| CS(=O)(=O)c1ccc(Oc2nsnc(Cl)c2=O)cc1 [Compound 41, 3-chloro-5-[(4-methylsulfonyl)phenoxy]-4H--1,2,6-thiadiazin-4-one] | 0% | 0% | 51% | 64% | – | – | – |
| CCOC(=O)c1ccc(Oc2nsnc(Cl)c2=O)cc1 [Compound 7, 3-chloro-5-(4-ethoxycarbonylphenoxy)-4H--1,2,6-thiadiazin-4-one] | 7% | 33% | 53% | 76% | – | – | – |
| O=C(Nc1ccccc1)Nc1ccc(Oc2nsnc(Cl)c2=O)cc1 [Compound 29, 3-chloro-5-[4-(3-phenylureido)-phenoxy]-4H--1,2,6-thiadiazin-4-one] | 0% | 31% | 0% | 29% | – | – | – |
| O=c1c(Cl)nsnc1Oc1ccc(F)cc1 [Compound 11, 3-chloro-5-(4-fluorophenoxy)-4H--1,2,6-thiadiazin-4-one] | 0% | 38% | 76% | 91% | – | – | – |
| CCCCOc1ccc(Oc2nsnc(Cl)c2=O)cc1 [Compound 6, 3-chloro-5-(4-n-butoxyphenoxy)-4H--1,2,6-thiadiazin-4-one] | 0% | 0% | 0% | 20% | – | – | – |
